Data: patent publication US20250197393A1, “INTEGRIN INHIBITOR AND USES THEREOF” (Pliant Therapeutics, Inc., priority 2023, published 2025)
Counter-ions that a name gives are not always drawn.

Experiments:
Format in all cases: physicochemical
[1] = Water activity experiments in MeOH/water (relative stability of hydrate Pattern A and hydrate Pattern B); details: methanol/water
Experimental: The relative stability of the hydrate Pattern A and the hydrate Pattern B was investigated using water activity experiments in MeOH/water systems. About 5 mg of (S)-4-((2-methoxyethyl)(4-(5,6,7,8-tetrahydro-1,8-naphthyridin-2-yl)butyl)amino)-2-(quinazolin-4-ylamino)butanoic acid L-tartaric acid cocrystal Pattern A and 5 mg of (S)-4-((2-methoxyethyl)(4-(5,6,7,8-tetrahydro-1,8-naphthyridin-2-yl)butyl)amino)-2-(quinazolin-4-ylamino)butanoic acid L-tartaric acid cocrystal Pattern B were added to 0.1-0.5 mL saturated solutions of the methanol/water system. Obtained suspensions were stirred at 5° C., 25° C. and 50° C. for up to 21 days, respectively. Solid parts (wet cakes) were isolated by centrifugation filtration and investigated by XRPD.

[2] = Equilibration of Pattern C suspension in IPA/water at 5° C.; details: IPA/water mixture, equilibration at 5° C., after 3 days
Experimental: Method 2: (S)-4-((2-methoxyethyl)(4-(5,6,7,8-tetrahydro-1,8-naphthyridin-2-yl)butyl)amino)-2-(quinazolin-4-ylamino)butanoic acid L-tartaric acid cocrystal Pattern C was prepared using the following procedure. 200 mg of (S)-4-((2-methoxyethyl)(4-(5,6,7,8-tetrahydro-1,8-naphthyridin-2-yl)butyl)amino)-2-(quinazolin-4-ylamino)butanoic acid L-tartaric acid cocrystal Pattern A (see Example 1) was dissolved in 1.8 mL of IPA/water (7:3, v:v) at 50° C. The obtained thin suspension was filtered through a 0.45 μm syringe membrane filter to obtain a clear solution. The clear solution was cooled to 5° C. at 0.1° C./min after stirring at 50° C. for about 30 min. After stirred at 5° C. for about 2 days, a suspension was obtained. Solids were collected by centrifugation and investigated by XRPD. A low crystallinity Pattern C was obtained.
The suspension was kept stirring at 5° C. for another 3 days. Solids were collected by centrifugation and investigated by XRPD. A low crystalline Pattern B was obtained.

[3] = Bulk stability of solid under temperature/humidity stress (HPLC, appearance, XRPD)
Experimental: Bulk stability of (S)-4-((2-methoxyethyl)(4-(5,6,7,8-tetrahydro-1,8-naphthyridin-2-yl)butyl)amino)-2-(quinazolin-4-ylamino)butanoic acid L-tartaric acid cocrystal Pattern A was evaluated at 25° C./92.5% RH in an open container, at 40° C./75% RH in an open container, and at 60° C. in a closed container over 1 week and 4 weeks.
However, it became deliquescent after being stressed at 25° C./92.5% RH in an open container and at 40° C./75% RH in an open container after 1 week.

[4] = Solubility at 37° C. in aqueous and biorelevant media; details: for Solubility (mg/ mL) 2 h / Solubility (mg/ mL) 24 h: target 250 mg/mL (in free form)
Experimental: To prepare the samples of (S)-4-((2-methoxyethyl)(4-(5,6,7,8-tetrahydro-1,8-naphthyridin-2-yl)butyl)amino)-2-(quinazolin-4-ylamino)butanoic acid L-tartaric acid cocrystal Pattern A, 80.6 mg was weighed into a 2 mL glass vial. Next, 0.18 mL of solubility medium was added. The salt amount used is equivalent to 45 mg of the amorphous free form. Obtained suspensions/solutions were stirred at 37° C. at 400 rpm and sampled at 2 h and at 24 h. The samples were centrifuged at 37° C. at 14,000 rpm for 5 min. Supernatants were analyzed by HPLC and pH meter for solubility and pH value, respectively. […]

[5] = Bulk stability of solid under temperature/humidity stress (HPLC, appearance, XRPD); details: for Bulk appearance (color change / deliquescence): Solid state, open container, 1 week
[6] = Solid state, 60° C., closed container, 1 week
[7] = pH 4.5 acetate buffer (50 mM), 37° C.
[8] = pH 6.8 phosphate buffer (50 mM), 37° C.

## COCCN(CCCCc1ccc2c(n1)NCCC2)CC[C@H](Nc1ncnc2ccccc12)C(=O)O [Pattern B, (S)-4-((2-methoxyethyl)(4-(5,6,7,8-tetrahydro-1,8-naphthyridin-2-yl)butyl)amino)-2-(quinazolin-4-ylamino)butanoic acid]
[1]; 5° C.
  water activity (a.w.) at which the pattern was obtained: 1.0
[1]; 25° C.
  water activity (a.w.) at which the pattern was obtained: 1.0

## COCCN(CCCCc1ccc2c(n1)NCCC2)CC[C@H](Nc1ncnc2ccccc12)C(=O)O [Pattern C, (S)-4-((2-methoxyethyl)(4-(5,6,7,8-tetrahydro-1,8-naphthyridin-2-yl)butyl)amino)-2-(quinazolin-4-ylamino)butanoic acid]
[2]
  form conversion: converts to Pattern B

## COCCN(CCCCc1ccc2c(n1)NCCC2)CC[C@H](Nc1ncnc2ccccc12)C(=O)O [Phosphate salt, hydrate, (S)-4-((2-methoxyethyl)(4-(5,6,7,8-tetrahydro-1,8-naphthyridin-2-yl)butyl)amino)-2-(quinazolin-4-ylamino)butanoic acid, reference compound]
[3]; 25° C./92.5% RH in an open container, 4 weeks
  purity decrease: 0.6%
[3]; 60° C. in a closed container over 4 weeks
  physical stability: physically stable
[3]; 60° C. in a closed container, 4 weeks
  purity decrease: 1.1%
[3]; Solid state, 25° C./92.5% RH, open container, 1 week
  Bulk (HPLC) purity, 316 nm: 99.7%
[3]; Solid state, 25° C./92.5% RH, open container, 4 weeks
  Bulk (HPLC) purity, 316 nm: 99.2%
[3]; Solid state, 40° C./75% RH, open container, 1 week
  Bulk (HPLC) purity, 316 nm: 98.7%
[3]; Solid state, 40° C./75% RH, open container, 4 weeks
  Bulk (HPLC) purity, 316 nm: 97.3%
[3]; [6]
  Bulk (HPLC) purity, 316 nm: 99.3%
  Bulk (XRPD): No form change
[3]; Solid state, 60° C., closed container, 4 weeks
  Bulk (HPLC) purity, 316 nm: 98.7%
[4]; FaSSGF, pH 1.6, 37° C.
  pH of supernatant at 24 h: (5.8)
  Solubility (mg/ mL) 2 h: >247 mg/mL
  Solubility (mg/ mL) 24 h: >247 mg/mL
[4]; FaSSIF-v1, pH 6.5, 37° C.
  pH of supernatant at 24 h: (5.9)
  Solubility (mg/ mL) 2 h: >213 mg/mL
  Solubility (mg/ mL) 24 h: >214 mg/mL
[4]; FeSSIF-v1, pH 5.0, 37° C.
  pH of supernatant at 24 h: (5.8)
  Solubility (mg/ mL) 2 h: >214 mg/mL
  Solubility (mg/ mL) 24 h: >218 mg/mL
[4]; Water, 37° C.
  pH of supernatant at 24 h: (5.8)
  Solubility (mg/ mL) 2 h: >247 mg/mL
  Solubility (mg/ mL) 24 h: >247 mg/mL
[4]; pH 1.2 HCl buffer, 37° C.
  pH of supernatant at 24 h: (1.6)
  Solubility (mg/ mL) 2 h: >208 mg/mL
  Solubility (mg/ mL) 24 h: >208 mg/mL
[4]; [7]
  pH of supernatant at 24 h: (4.8)
  Solubility (mg/ mL) 2 h: >228 mg/mL
  Solubility (mg/ mL) 24 h: >228 mg/mL
[4]; [8]
  pH of supernatant at 24 h: (6.7)
  Solubility (mg/ mL) 2 h: >229 mg/mL
  Solubility (mg/ mL) 24 h: >229 mg/mL
[5]; 40° C./75% RH in an open container, 4 weeks
  purity decrease: 2.5%
[5]; 25° C./92.5% RH
  Bulk appearance (color change / deliquescence): deliquescent
[5]; 40° C./75% RH
  Bulk appearance (color change / deliquescence): deliquescent
